Reference: patent US7666836B2, “Method for the therapeutic management of endometriosis” (priority 1999, dated 2010)
Non-standard residues stand in square brackets, D forms with d. Residues, ends and D or L forms follow the SMILES beside them. dPhe(4-Cl) = N[C@H](Cc1ccc(Cl)cc1)C(=O)O; d2Nal = N[C@H](Cc1ccc2ccccc2c1)C(=O)O; dCit = NC(=O)NCCC[C@@H](N)C(=O)O; d3Pal = N[C@H](Cc1cccnc1)C(=O)O

Columns and labels:
[1] = test system: patients with confirmed endometriosis; assay: weekly Cetrorelix acetate treatment of nine patients with confirmed endometriosis (FIG. 1); assay type: in vivo, human; settings: 3 mg s.c. weekly for 8 weeks; for hot flushes or other (estradiol) withdrawal symptoms: patients with endometriosis
estradiol serum levels = estradiol serum levels after weekly administration of cetrorelix (FIG. 2); assay type: in vivo
Description: […] The estradiol serum levels are between about 35-80 pg/ml, preferably between about 45-75 pg/ml, more preferably between about 50-75 pg/ml.

[2] = test system: patients with endometriosis; settings: 3 mg s.c. per week over eight weeks; stages rAFS I-II; cited from earlier work
[3] = test system: patients with endometriosis; assay: weekly Cetrotide s.c. over eight weeks in endometriosis patients with symptomatic pain; assay type: in vivo, human; settings: 3 mg s.c. per week over eight weeks
Protocol: Aim of the medicinal therapy of patients with endometriosis with symptomatic pain is to obtain a treatment without side effects, especially avoiding the negative effects of estrogen suppression and which is long-lasting after finishing therapy. The specific pharmacological mode of action of LHRH antagonists allows new possibilities for treatment of endometriosis.
The weekly administration of an adequate dose of an LHRH antagonist, e.g. 3 mg Cetrotide® s.c./per week over a period of eight weeks leads to a controlled suppression of estrogen secretion so that serum concentrations between about 35 pg/ml and about 80 pg/ml, preferably between about 45-75 pg/ml, more preferably between about 50-75 pg/ml are obtained. […] Also the development of osteoporosis can be avoided.

CC(=O)N[C@H](Cc1ccc2ccccc2c1)C(=O)N[C@H](Cc1ccc(Cl)cc1)C(=O)N[C@H](Cc1cccnc1)C(=O)N[C@@H](CO)C(=O)N[C@@H](Cc1ccc(O)cc1)C(=O)N[C@H](CCCNC(N)=O)C(=O)N[C@@H](CC(C)C)C(=O)N[C@@H](CCCNC(=N)N)C(=O)N1CCC[C@H]1C(=O)N[C@H](C)C(N)=O [Cetrorelix acetate] (Ac-[d2Nal][dPhe(4-Cl)][d3Pal]SY[dCit]LRP[dA]-NH2)
proliferation of the endometrium at the end of treatment (histological biopsies) [1]: no proliferation of the endometrium | proliferation of the endometrium at the end of treatment (histological biopsies) ([1]; listed as Cetrorelix): without proliferation of the endometrium | ovarian cyst formation ([1]; nine patients): No ovarian cyst formation occurred | progress of the disease confirmed by 2nd look laparascopy ([1]; nine patients): without any progress of the disease | hot flushes or other (estradiol) withdrawal symptoms [1]: avoiding any hot flushes or other withdrawal symptoms | hot flushes or other (estradiol) withdrawal symptoms ([1]; listed as Cetrorelix): without any signs of estradiol withdrawal symptoms | estradiol serum levels (FIG. 2) (estradiol serum levels; weekly dose of 1 mg once per week): 35 to 80 pg/mL | estradiol serum levels (FIG. 2) (estradiol serum levels; weekly dose of 3 mg once per week): 35 to 80 pg/mL | clinical regression of the disease (decrease of the implantation area) [2]: clinical regression of the disease | symptomatic pain ([3]; all stages of the disease (rAFS I-IV)): effectively suppressed | vegetative symptoms ([3]; serum concentration range about 35-80 pg/ml): no vegetative symptoms arise
